In US20250051346A1 (priority 2021, published 2025):

Columns and labels:
mice = conditions: mouse, in vivo
5HT2A sensor [1] = format: cell-based
5-HT2A [2] = target: T1, 5-HT2A (Homo sapiens, UniProt P28223); assay: Serotonin 5-HT2A in vitro radioligand binding competition assay; set-up: purchased Epics Therapeutics S.A. (Belgium), contract assay FAST-0505B; host or cells: membrane extracts; conditions: [3H]-DOI radiotracer, membrane extracts, read-out: 5HT2A R[…] ACTIVITY
Protocol: Serotonin 5-HT2A In Vitro Radioligand Binding Competition Assay. The 5-HT2A radioligand binding competition assay was performed at Epics Therapeutics S.A. (Belgium, FAST-0505B) using conventional methods. Briefly, competition binding was performed in duplicate in the wells of a 96 well plate (Master Block, Greiner, 786201) containing binding buffer (optimized for each receptor), membrane extracts (amount of protein/well optimized for each receptor), radiotracer [^3H]-DOI (final concentration optimized for each receptor) and test compound. Nonspecific binding was determined by co-incubation with 200-fold excess of cold competitor. The samples were incubated in a final volume of 0.1 ml at a temperature and for a duration optimized for each receptor and then filtered over filter plates. Filters were washed six times with 0.5 ml of ice-cold washing buffer (optimized for each receptor) and 50 μl of Microscint 20 (Packard) were added in each well. The plates were incubated 15 min on an orbital shaker and then counted with a TopCount™ for 1 min/well.

5-HT2A [3] = target: T1, 5-HT2A; assay: Serotonin 5-HT2A in vitro cellular IPOne agonism assay; format: cell-based; set-up: host or cells: CHO-K1; conditions: CHO-K1 cells, 60 min
Protocol: (§1) Serotonin 5-HT2A In Vitro Cellular IPOne Agonism Assay. The 5-HT2A IPOne HTRF assay was performed at Epics Therapeutics S.A. (Belgium, FAST-0505I) using conventional methods. Briefly, CHO-K1 cells expressing human recombinant 5-HT2A receptor grown to mid-log phase in culture media without antibiotics were detached with PBS-EDTA, centrifuged, and resuspended in medium without antibiotics buffer. 20,000 cells are distributed in a 96 well plate and incubated overnight at 37° C. with 5% CO2.
For agonist testing, the medium was removed and 20 μl of assay buffer plus 20 μl of test compound or reference agonist were added in each well. The plate was incubated for 60 min. at 37° C. with 5% CO2.
After addition of the lysis buffer containing IP1-d2 and anti-IP1 cryptate detection reagents, plates were incubated 1-hour at room temperature, and fluorescence ratios were measured according to the manufacturer specification, with the HTRF kit.

5-HT2A [4] = target: T1, 5-HT2A; assay: Serotonin 5-HT2A in vitro cellular IPOne antagonism assay; format: cell-based; set-up: host or cells: CHO-K1; conditions: CHO-K1 cells; reference agonist a-Me-5HT
Protocol: as §1, with “Antagonism” for “Agonism”, “FAST-0505I) in antagonism mode” for “FAST-0505I)”
For antagonist testing, a reference agonist a-Me-5HT was added and fluorescence signal monitored for several minutes, followed by addition of 20 μl of assay buffer plus 20 μl of test compound or reference antagonist ketanserin, in each well. The plate was incubated for 60 min. at 37° C. with 5% CO2.
After addition of the lysis buffer containing IP1-d2 and anti-IP1 cryptate detection reagents, plates were incubated 1-hour at room temperature, and fluorescence ratios are measured according to the manufacturer specification, with the HTRF kit.

5HT2A sensor [5] = format: cell-based; remark: listed apart in the source

T1 sequence (P28223 whole entry): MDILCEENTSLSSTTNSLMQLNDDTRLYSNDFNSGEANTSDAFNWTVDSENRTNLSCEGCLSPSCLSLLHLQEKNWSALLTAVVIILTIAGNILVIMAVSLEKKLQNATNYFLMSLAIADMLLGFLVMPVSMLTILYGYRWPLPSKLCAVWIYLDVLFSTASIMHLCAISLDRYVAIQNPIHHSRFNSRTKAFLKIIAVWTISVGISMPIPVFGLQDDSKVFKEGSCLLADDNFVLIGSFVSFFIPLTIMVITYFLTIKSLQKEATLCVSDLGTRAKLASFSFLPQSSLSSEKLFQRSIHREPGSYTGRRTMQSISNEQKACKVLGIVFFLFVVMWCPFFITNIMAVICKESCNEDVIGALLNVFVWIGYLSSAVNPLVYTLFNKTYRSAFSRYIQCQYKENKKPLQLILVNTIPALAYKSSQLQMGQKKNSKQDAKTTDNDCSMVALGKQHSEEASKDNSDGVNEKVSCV

Compound | activation of the 5HT2A sensor assay (5HT2A sensor [1]) | IC50 (5-HT2A [2]; benzothiophenes) | EC50 (5-HT2A [3]; benzothiophenes) | IC50 (5-HT2A [4]) | also measured
5-MeO-DMT [Compound 5-MeO-DMT] | activate the 5HT2A sensor assay in agonist mode | – | – | – | head-twitch response (HTR) (mice): robust, dose-dependent head-twitch response
COc1ccc2c3c(sc2c1)CCN(C)CC3 [Compound 34, 8-methoxy-3-methyl-2,3,4,5-tetrahydro-1H-benzo[4,5]thieno[2,3-d]azepine] | – | 1000 to 10000 nM | 1000 to 10000 nM | 101 to 1000 nM | –
CN(C)CCc1c[nH]c2ccccc12 [DMT, N,N-dimethyltryptamine] | activate the 5HT2A sensor assay in agonist mode | – | – | – | –
L-MDMA | do not activate the 5HT2A sensor assay in agonist mode | – | – | – | –
O=C(c1ccc(F)cc1)C1CCN(CCn2c(=O)[nH]c3ccccc3c2=O)CC1 [Ketanserin] | do not activate the 5HT2A sensor assay in agonist mode | – | – | – | competition with 5-HT at 5HT2A in the sensor assay (5HT2A sensor [5]): can compete with 5HT binding to 5HT2A
CCN(CC)CCc1c[nH]c2cc(F)ccc12 [Compound 6-F-DET, 6-F-DET] | do not activate the 5HT2A sensor assay in agonist mode | – | – | – | competition with 5-HT at 5HT2A in the sensor assay (5HT2A sensor [5]): can compete with 5HT binding to 5HT2A
CCN(CC)C(=O)[C@@H]1C=C2c3cccc4[nH]cc(c34)C[C@H]2N(C)C1 [LSD] | activate the 5HT2A sensor assay in agonist mode | – | – | – | –
c1ccc(COc2cccc3oc4c(c23)CCNCC4)cc1 [Compound 47, 10-(benzyloxy)-2,3,4,5-tetrahydro-1H-benzofuro[2,3-d]azepine] | – | – | – | 101 to 1000 nM | IC50 (5-HT2A [2]; benzofurans): 101 to 1000 nM; EC50 (5-HT2A [3]; benzofurans): 1000 to 10000 nM
CN1CCc2sc3cc(OC(F)(F)F)ccc3c2CC1 [Compound 75, 3-methyl-8-(trifluoromethoxy)-2,3,4,5-tetrahydro-1H-benzo[4,5]thieno[2,3-d]azepine] | – | 1000 to 10000 nM | > 10000 nM | 101 to 1000 nM | –
Fc1ccc2c3c(sc2c1)CCN(C1CCC1)CC3 [Compound 32, 3-cyclobutyl-8-fluoro-2,3,4,5-tetrahydro-1H-benzo[4,5]thieno[2,3-d]azepine] | – | 10 to 100 nM | > 10000 nM | 10 to 100 nM | –
c1ccc2c3c(oc2c1)CCN(C1CCC1)CC3 [Compound 28, 3-cyclobutyl-2,3,4,5-tetrahydro-1H-benzofuro[2,3-d]azepine] | – | – | – | > 10000 nM | IC50 (5-HT2A [2]; benzofurans): 1000 to 10000 nM; EC50 (5-HT2A [3]; benzofurans): > 10000 nM
CN1CCc2oc3cc(F)ccc3c2CC1 [Compound 23, 8-fluoro-3-methyl-2,3,4,5-tetrahydro-1H-benzofuro[2,3-d]azepine] | – | – | – | 101 to 1000 nM | IC50 (5-HT2A [2]; benzofurans): 101 to 1000 nM; EC50 (5-HT2A [3]; benzofurans): 101 to 1000 nM
CN1CCc2sc3cc(F)ccc3c2CC1 [Compound 33, 8-fluoro-3-methyl-2,3,4,5-tetrahydro-1H-benzo[4,5]thieno[2,3-d]azepine] | – | 10 to 100 nM | 10 to 100 nM | 10 to 100 nM | –
c1ccc2c3c(sc2c1)CCN(C1CCC1)CC3 [Compound 73, 3-cyclobutyl-2,3,4,5-tetrahydro-1H-benzo[4,5]thieno[2,3-d]azepine] | – | 101 to 1000 nM | > 10000 nM | 101 to 1000 nM | –
DOI | activate the 5HT2A sensor assay in agonist mode | – | – | – | –
COc1cccc2oc3c(c12)CN(C1CCC1)CCC3 [Compound 14, 2-cyclobutyl-10-methoxy-2,3,4,5-tetrahydro-1H-benzofuro[3,2-c]azepine] | – | – | – | 101 to 1000 nM | IC50 (5-HT2A [2]; benzofurans): 1000 to 10000 nM; EC50 (5-HT2A [3]; benzofurans): 1000 to 10000 nM
CN1CCc2oc3ccccc3c2CC1 [Compound 30, 3-methyl-2,3,4,5-tetrahydro-1H-benzofuro[2,3-d]azepine] | – | – | – | 101 to 1000 nM | IC50 (5-HT2A [2]; benzofurans): 101 to 1000 nM; EC50 (5-HT2A [3]; benzofurans): > 10000 nM
CCN(CC)C(=O)[C@@H]1C=C2c3cccc4[nH]c(Br)c(c34)C[C@H]2N(C)C1 [BOL148] | do not activate the 5HT2A sensor assay in agonist mode | – | – | – | competition with 5-HT at 5HT2A in the sensor assay (5HT2A sensor [5]): can compete with 5HT binding to 5HT2A
R-MDMA | do not activate the 5HT2A sensor assay in agonist mode | – | – | – | –
CN1CCc2sc3ccccc3c2CC1 [Compound 72, 3-methyl-2,3,4,5-tetrahydro-1H-benzo[4,5]thieno[2,3-d]azepine] | – | 10 to 100 nM | 101 to 1000 nM | 10 to 100 nM | –
